≈ marks a conversion by molar mass, not a printed value.
What was measured:
[1] = test system: Hepatitis C virus; test: Antiviral activity against HCV GT3a-genotype assessed as inhibition of viral replication; assay type: functional, organism-based, Hepacivirus hominis
[2] = test system: Hepatitis C virus; test: Antiviral activity against HCV GT4a-genotype assessed as inhibition of viral replication; assay type: functional, organism-based, Hepacivirus hominis
[3] = test system: Hepatitis C virus; test: microbe, parasite or virus in culture; conditions: GT1a-genotype
[4] = test system: Hepatitis C virus; test: Antiviral activity against HCV GT2a-genotype assessed as inhibition of viral replication; assay type: functional, organism-based, Hepacivirus hominis
[5] = Dissociation constant, pKa of the compound; assay type: physicochemical
[6] = Inhibition of LFA-1/ICAM-1 (unknown origin) interaction; design: species or system Homo sapiens
[7] = Prodrug conversion in rat plasma assessed as formation of Isavuconazole from intermediate by measuring half life; assay type: ADME, cell-free
[8] = Solubility of the compound; assay type: physicochemical
[9] = Prodrug conversion in rat plasma assessed as esterase mediated intermediate formation by measuring half life; assay type: ADME, cell-free
[10] = physchem; conditions: buffer, pH 7.4
[11] = target: Tyrosine-protein kinase ABL1 (Homo sapiens, UniProt P00519); test: Inhibition of ABL1 (unknown origin)
Tyrosine-protein kinase ABL1, sequence (P00519 whole entry): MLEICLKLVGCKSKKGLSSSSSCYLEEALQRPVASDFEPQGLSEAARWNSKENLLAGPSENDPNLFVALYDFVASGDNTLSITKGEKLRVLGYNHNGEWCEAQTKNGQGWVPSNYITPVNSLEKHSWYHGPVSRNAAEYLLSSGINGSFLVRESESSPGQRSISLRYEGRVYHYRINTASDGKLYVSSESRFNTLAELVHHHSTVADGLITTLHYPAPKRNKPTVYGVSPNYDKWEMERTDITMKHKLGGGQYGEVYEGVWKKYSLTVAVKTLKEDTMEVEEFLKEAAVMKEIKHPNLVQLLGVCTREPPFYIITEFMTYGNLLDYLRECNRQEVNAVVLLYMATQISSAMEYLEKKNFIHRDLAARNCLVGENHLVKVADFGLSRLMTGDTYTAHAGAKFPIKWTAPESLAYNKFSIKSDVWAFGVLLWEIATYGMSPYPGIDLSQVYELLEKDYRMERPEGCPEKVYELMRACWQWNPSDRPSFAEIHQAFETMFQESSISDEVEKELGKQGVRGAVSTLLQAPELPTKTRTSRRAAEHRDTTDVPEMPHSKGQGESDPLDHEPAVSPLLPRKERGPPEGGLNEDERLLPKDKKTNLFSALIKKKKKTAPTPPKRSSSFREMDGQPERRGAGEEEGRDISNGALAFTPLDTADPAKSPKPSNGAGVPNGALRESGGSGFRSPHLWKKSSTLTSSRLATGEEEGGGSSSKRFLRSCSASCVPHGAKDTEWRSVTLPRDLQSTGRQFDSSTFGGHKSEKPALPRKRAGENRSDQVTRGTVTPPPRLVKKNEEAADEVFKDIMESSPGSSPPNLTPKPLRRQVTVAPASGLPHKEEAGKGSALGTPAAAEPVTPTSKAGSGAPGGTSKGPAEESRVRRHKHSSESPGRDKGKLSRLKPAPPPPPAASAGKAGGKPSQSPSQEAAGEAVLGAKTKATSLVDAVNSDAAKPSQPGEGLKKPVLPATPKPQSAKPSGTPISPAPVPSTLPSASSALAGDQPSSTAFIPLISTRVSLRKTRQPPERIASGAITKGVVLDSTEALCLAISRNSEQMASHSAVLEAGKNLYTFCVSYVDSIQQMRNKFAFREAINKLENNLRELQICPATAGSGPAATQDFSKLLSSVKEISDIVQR

[12] = Lipophilicity, logD of the compound at pH 7.4; assay type: physicochemical; conditions: buffer
[13] = test system: Hepatitis C virus; test: microbe, parasite or virus in culture; conditions: GT1b-genotype
[14] = Metabolic stability in human liver microsomes assessed as parent compound remaining; assay type: ADME, Microsome
[15] = target: Beta-2 adrenergic receptor (Bos taurus, UniProt Q28044); test: Antagonist activity at bovine lung membrane adrenergic beta-2 receptor; assay type: cell membranes
Beta-2 adrenergic receptor, sequence (Q28044 whole entry): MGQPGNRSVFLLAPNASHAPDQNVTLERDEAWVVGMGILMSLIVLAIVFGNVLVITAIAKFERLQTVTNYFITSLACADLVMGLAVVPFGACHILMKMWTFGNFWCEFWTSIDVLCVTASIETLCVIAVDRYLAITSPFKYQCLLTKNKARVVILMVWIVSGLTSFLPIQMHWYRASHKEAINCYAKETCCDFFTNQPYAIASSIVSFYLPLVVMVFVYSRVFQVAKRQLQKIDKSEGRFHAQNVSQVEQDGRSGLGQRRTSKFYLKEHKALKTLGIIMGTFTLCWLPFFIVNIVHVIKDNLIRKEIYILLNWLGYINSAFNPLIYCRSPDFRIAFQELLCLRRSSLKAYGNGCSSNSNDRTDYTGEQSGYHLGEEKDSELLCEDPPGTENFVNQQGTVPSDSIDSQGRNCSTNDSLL

[16] = target: Beta-1 adrenergic receptor (Rattus norvegicus, UniProt P18090)
Beta-1 adrenergic receptor, sequence (P18090 whole entry): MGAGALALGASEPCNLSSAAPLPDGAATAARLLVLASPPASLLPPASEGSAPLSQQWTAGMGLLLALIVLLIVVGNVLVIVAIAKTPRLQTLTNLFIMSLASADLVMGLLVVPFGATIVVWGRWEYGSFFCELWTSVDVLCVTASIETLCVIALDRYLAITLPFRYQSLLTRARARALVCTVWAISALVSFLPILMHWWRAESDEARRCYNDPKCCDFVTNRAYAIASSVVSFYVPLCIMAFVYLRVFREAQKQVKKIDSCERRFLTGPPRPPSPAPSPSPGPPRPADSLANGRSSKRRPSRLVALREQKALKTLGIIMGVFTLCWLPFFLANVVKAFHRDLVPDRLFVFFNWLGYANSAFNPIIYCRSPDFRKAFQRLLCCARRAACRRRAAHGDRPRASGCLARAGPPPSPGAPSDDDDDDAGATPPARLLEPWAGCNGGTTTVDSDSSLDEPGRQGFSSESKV

[17] = test system: SU-DHL10; test: Antiproliferative activity against human SU-DHL-10 cells assessed as cell growth inhibition at 30 uM relative to control; assay type: functional
[18] = Aqueous solubility of compound at pH 7.4; assay type: physicochemical
[19] = test system: MIA PaCa-2; test: Antiproliferative activity against human MIA PaCa-2 cells assessed as cell growth inhibition at 30 uM relative to control; assay type: functional
[20] = Half life in rat hepatocytes; assay type: ADME, cell-based, Hepatocyte
[21] = test system: MDA-MB-231; test: Antiproliferative activity against human MDA-MB-231 cells assessed as cell growth inhibition at 30 uM relative to control; assay type: functional
[22] = test system: Influenza A virus; test: Antiviral activity against Influenza A virus A/PR/8/34 (PR8) strain infected in MDCK cells assessed as reduction in viral infection incubated for 72 hrs by crystal violet staining based assay; assay type: functional, organism-based
[23] = in vitro; conditions: human, liver microsomes
[24] = Inhibition of human rhinovirus 3C protease; design: species or system Human rhinovirus sp.
[25] = in vitro; conditions: human, Caco-2
[26] = Aqueous solubility of compound; assay type: physicochemical
[27] = test system: Human rhinovirus sp.; test: Inhibition of human rhinovirus 3C protease assessed as kobs/[I]
[28] = Inhibition of WNT (unknown origin) by luciferase reporter assay; design: species or system Homo sapiens
[29] = Solubility of compound at pH 6.8 by RapidFire mass spectrometry; assay type: physicochemical; conditions: buffer
[30] = Solubility of the compound in FaSSIF at pH 6.8 by RapidFire mass spectrometry; assay type: ADME; conditions: simulated gi fluid
[31] = Clearance in rat liver microsomes; assay type: ADME, Microsome
[32] = target: CYP3A4 (Homo sapiens, UniProt P08684); test: Inhibition of CYP3A4 (unknown origin); assay type: ADME
CYP3A4, sequence (P08684 whole entry): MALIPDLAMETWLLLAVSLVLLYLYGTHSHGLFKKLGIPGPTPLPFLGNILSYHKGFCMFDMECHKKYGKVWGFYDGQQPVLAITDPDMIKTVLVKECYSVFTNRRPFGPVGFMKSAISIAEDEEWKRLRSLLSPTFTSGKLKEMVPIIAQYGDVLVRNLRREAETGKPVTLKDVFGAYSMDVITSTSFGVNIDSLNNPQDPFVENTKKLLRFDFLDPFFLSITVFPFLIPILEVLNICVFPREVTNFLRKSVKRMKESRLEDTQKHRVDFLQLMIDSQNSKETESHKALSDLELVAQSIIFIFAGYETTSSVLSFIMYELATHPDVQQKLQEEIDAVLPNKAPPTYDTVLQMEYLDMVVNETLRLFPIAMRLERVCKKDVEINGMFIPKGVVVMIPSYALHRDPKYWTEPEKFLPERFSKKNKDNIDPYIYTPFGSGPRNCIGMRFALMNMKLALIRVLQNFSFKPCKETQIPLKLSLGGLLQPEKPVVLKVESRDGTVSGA

[33] = Inhibition of MAPK (unknown origin); design: species or system Homo sapiens
[34] = test system: Trypanosoma cruzi; test: Antitrypanosomal activity against Trypanosoma cruzi trypomastigotes infected in mouse 3T3 cells assessed as reduction in parasite growth; assay type: functional, organism-based; conditions: NIH3T3
[35] = target: Voltage-gated inwardly rectifying potassium channel KCNH2 (Homo sapiens, UniProt Q12809); test: Inhibition of hERG channel; assay type: toxicity
Voltage-gated inwardly rectifying potassium channel KCNH2, sequence (Q12809 whole entry): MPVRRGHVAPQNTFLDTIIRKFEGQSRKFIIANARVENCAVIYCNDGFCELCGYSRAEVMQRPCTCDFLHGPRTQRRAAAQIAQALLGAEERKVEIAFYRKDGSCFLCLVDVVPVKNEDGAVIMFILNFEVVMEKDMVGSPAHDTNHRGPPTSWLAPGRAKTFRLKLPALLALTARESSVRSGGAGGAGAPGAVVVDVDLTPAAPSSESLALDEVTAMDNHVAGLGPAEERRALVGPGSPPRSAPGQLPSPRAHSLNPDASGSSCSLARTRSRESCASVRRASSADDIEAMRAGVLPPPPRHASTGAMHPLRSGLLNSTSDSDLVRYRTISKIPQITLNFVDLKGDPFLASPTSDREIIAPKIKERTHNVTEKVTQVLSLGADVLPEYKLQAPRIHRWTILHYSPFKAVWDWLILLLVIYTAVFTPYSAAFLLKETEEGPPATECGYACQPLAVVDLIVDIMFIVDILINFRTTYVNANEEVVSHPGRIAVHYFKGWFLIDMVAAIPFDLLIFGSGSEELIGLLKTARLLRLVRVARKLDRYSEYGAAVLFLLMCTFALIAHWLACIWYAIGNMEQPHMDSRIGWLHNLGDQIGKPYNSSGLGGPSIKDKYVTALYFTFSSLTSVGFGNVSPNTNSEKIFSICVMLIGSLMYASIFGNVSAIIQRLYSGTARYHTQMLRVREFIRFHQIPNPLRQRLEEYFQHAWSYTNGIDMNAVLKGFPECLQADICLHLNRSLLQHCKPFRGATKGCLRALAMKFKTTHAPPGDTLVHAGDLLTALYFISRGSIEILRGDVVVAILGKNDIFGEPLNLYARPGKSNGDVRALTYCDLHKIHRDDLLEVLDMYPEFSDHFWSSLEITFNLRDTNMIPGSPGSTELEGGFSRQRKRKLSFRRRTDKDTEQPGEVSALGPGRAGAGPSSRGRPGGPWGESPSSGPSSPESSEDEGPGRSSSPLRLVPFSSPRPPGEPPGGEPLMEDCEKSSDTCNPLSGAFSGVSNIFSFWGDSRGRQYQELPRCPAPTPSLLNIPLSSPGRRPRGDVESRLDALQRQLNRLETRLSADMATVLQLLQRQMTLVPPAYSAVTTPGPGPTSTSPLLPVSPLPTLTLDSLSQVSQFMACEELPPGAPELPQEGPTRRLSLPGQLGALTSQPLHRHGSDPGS

COC(=O)N[C@@H](C(=O)N1CCC[C@@H]1c1ncc(-c2csc3c(-c4cnc([C@H]5CCCN5C(=O)[C@H](NC(=O)OC)C(C)C)[nH]4)csc23)[nH]1)C(C)C
EC50 [1]: 0.1 nM
EC50 [2]: < 0.1 nM
EC50 [3]: < 0.1 nM
EC50 [4]: < 0.1 nM

NC12CCC(CC1)C2
pKa [5]: 11

CC(C)c1ccccc1Sc1ccc(C2CC2C(=O)NCCCN2CCCC2=O)c(Cl)c1Cl (racemic)
IC50 [6]: 7 nM

CNCC(=O)OCc1ccccc1N(C)C(=O)OC(C)[n+]1cnn(C[C@](O)(c2cc(F)ccc2F)[C@H](C)c2nc(-c3ccc(C#N)cc3)cs2)c1 (stereo partly drawn)
t1/2 [7]: 13 min
solubility [8]: 1000 µg/mL
t1/2 [9]: < 2 min

Cc1ccc(NC(=O)[C@@H]2C[C@H]2CN2CCN(C)CC2)cc1Nc1nccc(-c2cccnc2)n1
solubility [10]: 3720 µM
IC50 [11]: > 1000 nM

O=C(C1[C@@H]2CC[C@@]1(c1ccccc1)C2)N1CCCCC1 (stereo partly drawn)
solubility [10]: 492 µM
logD [12]: 3.7

CC(=O)Nc1nc2c(Oc3cc(N4CCN([C@H](C)c5ccc(F)cc5)CC4)ncn3)cccc2s1
solubility [8]: > 200 µg/mL

COC(=O)N[C@@H](C(=O)N1CCC[C@@H]1c1ncc(-c2cc3sc(-c4cnc([C@H]5CCCN5C(=O)[C@H](NC(=O)OC)C(C)C)[nH]4)cc3s2)[nH]1)C(C)C
EC50 [3]: 10 nM
EC50 [13]: < 1 nM

CN1CCN(c2ccc(Nc3cc(C4CC4)[nH]n3)cc2)CC1
Stability [14]: 92%

CC(C)NCC(O)c1ccc(Cl)c(Cl)c1 (stereo not drawn) [DICHLOROISOPROTERENOL]
IC50 [15]: 977 nM
IC50 [16]: 115 nM

Oc1cc(O)cc(/C=C/C23CC(O)(C2)C3)c1
logD [12]: 1.9
inhibition at 30 µM [17]: 41%
solubility [18]: 619 µg/mL (≈ 2840 µM)
inhibition at 30 µM [19]: 30%
half-life [20]: 24 min
inhibition at 30 µM [21]: 22%

O=C(O)/C(O)=C/C(=O)C1CCCCC1
IC50 [22]: 29400 nM

CC(=O)N1CCN(c2nc(-c3ccc(Sc4ccccc4C(C)C)c(C(F)(F)F)c3)co2)CC1
IC50 [6]: 2500 nM

O=C(c1ccccc1-c1ccccc1)N1CCCCC1
solubility [10]: 397 µM
logD [12]: 3.5

Oc1ccc(/C=C/c2cc(O)cc(O)c2)cc1 [RESVERATROL]
logD [12]: 2.9
inhibition at 30 µM [17]: 46%
solubility [18]: 19 µg/mL (≈ 83.2 µM)
inhibition at 30 µM [19]: 30%
half-life [20]: < 7.5 min
inhibition at 30 µM [21]: 20%

CC(=O)Nc1nc2c(Oc3cc(N4CCN(CC(F)(F)F)CC4)ncn3)cccc2s1
solubility [8]: > 200 µg/mL

CCOC(=O)/C=C/[C@H](C[C@@H]1CCNC1=O)NC(=O)[C@H](Cc1ccc(F)c(F)c1)n1cccc(NC(=O)c2cc(C)on2)c1=O
remaining at 0.5 h [23]: 19%
EC50 [24]: 11 nM
Papp A→B [25]: 35 ×10⁻⁶ cm/s
solubility [26]: 25 µg/mL (≈ 40.9 µM)
Ratio [27]: 1.8e+06 M/s

CC(=O)N1CCN(c2nc(-c3ccc(Sc4ccccc4C(C)C)c(C(F)(F)F)c3)cs2)CC1
IC50 [6]: 3000 nM

Cc1ccc(NC(=O)[C@H]2C[C@@H](CN3CCN(C)CC3)C2)cc1Nc1nccc(-c2cccnc2)n1
IC50 [11]: > 1000 nM

Cc1cc(-c2ccc(CNC(=O)C34CC(c5cnccn5)(C3)C4)cc2)ccn1
EC50 [28]: > 50 nM

COc1ccccc1N1CCN(CCCCNC(=O)c2ccc(B3C=CC=CN3)cc2)CC1
solubility [29]: 0.046 µM (≈ 20.4 ng/mL)
solubility [30]: 0.22 µM (≈ 97.8 ng/mL)
CLhep predicted [31]: 53 mL/min/kg

O=C(/C=C/c1ccc(Sc2ccc(Cl)cc2Cl)c(Br)c1)NCCCN1CCCC1=O
IC50 [6]: 650 nM

CC(C)(C)c1cccc(C(=O)O)c1
solubility [10]: 8080 µg/mL

CC(=O)c1ccccc1C(C)(C)C
solubility [10]: 12100 µg/mL

N#Cc1cccc(Br)c1
solubility [10]: 637 µg/mL

COC(=O)N[C@@H](C(=O)N1CCC[C@@H]1c1ncc(-c2cn3cc(-c4cnc([C@H]5CCCN5C(=O)[C@H](NC(=O)OC)C(C)C)[nH]4)sc3n2)[nH]1)C(C)C
EC50 [13]: < 1 nM

Cc1ccc(NC(=O)C23CC(CN4CCN(C)CC4)(C2)C3)cc1Nc1nccc(-c2cccnc2)n1
solubility [10]: 2680 µM
IC50 [11]: > 1000 nM

COC(=O)N[C@@H](C(=O)N1CCC[C@@H]1c1ncc(-c2ccc(-n3ccc4c(-c5cnc([C@H]6CCCN6C(=O)[C@H](NC(=O)OC)C(C)C)[nH]5)csc43)c(Cl)c2)[nH]1)C(C)C
EC50 [13]: < 1 nM

CNCC(=O)OCc1cccnc1N(C)C(=O)OC(C)[n+]1cnn(C[C@](O)(c2cc(F)ccc2F)[C@H](C)c2nc(-c3ccc(C#N)cc3)cs2)c1 (stereo partly drawn)
t1/2 [7]: < 1 min
solubility [8]: > 100000 µg/mL
t1/2 [9]: < 1 min

N#Cc1ccc(Br)cc1
solubility [10]: 194 µg/mL

CC/C=N/OCC(O)CNC(C)(C)C (stereo not drawn)
IC50 [15]: 1550 nM
IC50 [16]: 26300 nM

COC(=O)N[C@@H](C(=O)N1CCC[C@@H]1c1ncc(-c2ccc(-c3cc4oc(-c5cnc([C@H]6CCCN6C(=O)[C@H](NC(=O)OC)C(C)C)[nH]5)cc4s3)cc2)[nH]1)C(C)C
EC50 [13]: < 1 nM

COc1ccccc1N1CCN(CCCCNC(=O)c2ccc(-c3ccccc3)cc2)CC1
IC50 [32]: > 20000 nM
solubility [29]: < 0.005 µM
solubility [30]: 0.021 µM (≈ 9.32 ng/mL)
CLhep predicted [31]: 51 mL/min/kg

CN1CCN(c2ccc(Nc3cc(C4CC4)[nH]n3)nc2)CC1
Stability [14]: 73%

COCCn1c(SC)nc(-c2ccc(F)cc2)c1-c1cccc(NC(=O)CCc2ccccc2OC)c1
solubility [10]: 0.0255 µg/mL
IC50 [33]: 93 nM

NC12CCC(CC1)CC2
pKa [5]: 11

N#Cc1ccccc1Br
solubility [10]: 412 µg/mL

O=C(Cn1ccnc1[N+](=O)[O-])NCc1ccccc1 [BENZNIDAZOLE]
EC50 [34]: 6100 nM

CN1CCN(c2ccc(Nc3cc(C4CC4)[nH]n3)nn2)CC1
Stability [14]: 81%

CC(=O)N1CCN(C(=O)/C=C/c2ccc(Sc3ccccc3C(C)C)c(C(F)(F)F)c2)CC1
IC50 [6]: 60 nM

NC12CC(C1)C2
pKa [5]: 11

O=C(Cn1ccnc1[N+](=O)[O-])NCC1=C/C=C\C=C/C=C\1
EC50 [34]: 2300 nM

COCCn1c(SC)nc(-c2ccc(F)cc2)c1-c1cccc(NC(=O)CCc2cccc(OC)c2)c1
solubility [10]: 0.275 µg/mL
IC50 [33]: 93 nM

Cc1ccc(NC(=O)CCCCN2CCN(C)CC2)cc1Nc1nccc(-c2cccnc2)n1
solubility [10]: 356 µM
IC50 [11]: > 1000 nM

COCCn1c(SC)nc(-c2ccc(F)cc2)c1-c1cccc(NC(=O)CCc2ccc(OC)cc2)c1
solubility [10]: 0.0473 µg/mL
IC50 [33]: 48 nM

Cc1ccc(NC(=O)[C@H]2CC[C@H](CN3CCN(C)CC3)CC2)cc1Nc1nccc(-c2cccnc2)n1
solubility [10]: 56 µM
IC50 [11]: > 1000 nM

Cc1ccc(NC(=O)[C@H]2C[C@H](CN3CCN(C)CC3)C2)cc1Nc1nccc(-c2cccnc2)n1
solubility [10]: 2000 µM
IC50 [11]: > 1000 nM

Cc1ccc(NC(=O)CCCCCN2CCN(C)CC2)cc1Nc1nccc(-c2cccnc2)n1
IC50 [11]: > 1000 nM

Cc1cc(-c2ccc(CNC(=O)c3ccc(-c4cnccn4)cc3)cc2)ccn1
EC50 [28]: 0.7 nM

Cc1ccc(NC(=O)[C@H]2C[C@@H]2CN2CCN(C)CC2)cc1Nc1nccc(-c2cccnc2)n1
IC50 [11]: > 1000 nM

O=C(NCCS(=O)(=O)c1ccc(C(F)(F)F)cn1)c1ccc(-c2ccccc2)cc1
IC50 [32]: > 20000 nM
solubility [29]: < 0.004 µM
solubility [30]: < 0.004 µM
IC50 [35]: > 30000 nM
CLhep predicted [31]: 39 mL/min/kg

CC(=O)N1CCN(c2cc(-c3ccc(Sc4ccccc4C(C)C)c(C(F)(F)F)c3)ccn2)CC1
IC50 [6]: 93 nM

Cc1ccc(NC(=O)[C@@H]2CC[C@H](CN3CCN(C)CC3)C2)cc1Nc1nccc(-c2cccnc2)n1
solubility [10]: 885 µM
IC50 [11]: > 1000 nM

CC(=O)N1CCN(c2cc(-c3ccc(Sc4ccccc4C(C)C)c(C(F)(F)F)c3)ncn2)CC1
IC50 [6]: 220 nM
